{"source": "patent US11905280B1", "about": "“2-(benzo[d]oxazol-2-yl)-N'-(picolinoyloxy)acetimidamide as an antimicrobial compound” (KING FAISAL UNIVERSITY, priority 2023, dated 2024)", "key": {"[1]": {"system": "Chrysosporium keratinophilum", "assay": "Agar plate disc-diffusion antifungal test", "assay_type": "cell-based", "settings": "Sabouraud's dextrose agar, 72 hours", "description": "(§1) The agar plate disc-diffusion method was applied. Sterilized filter papers (6 mm in diameter) were wetted with 10 μL of a solution of 2-(benzo[d]oxazol-2-yl)-N′-(picolinoyloxy)acetimidamide (3) to be tested, containing 10 mg/mL in DMSO, and the discs were allowed to air dry. The discs were then placed onto the surface of agar plates (nutrient agar for bacteria and Sabouraud's dextrose agar for fungi) seeded with the test organism. Each plate contained 15 mL of the agar medium, previously seeded with 0.2 mL of the broth culture of each organism pregrown for 18 hours. The plates were incubated at 37° C. for 48 hours, and 72 hours for fungi. The inhibition zones was measured in mm. Discs impregnated with DMSO were used as a control, and its inhibition zone was subtracted from the tested compound actual inhibition zone."}, "Aspergillus flavus": {"system": "Aspergillus flavus", "assay": "Agar plate disc-diffusion antifungal test", "assay_type": "cell-based", "settings": "Sabouraud's dextrose agar, 72 hours", "description": "as §1"}, "Staphylococcus aureus": {"system": "Staphylococcus aureus", "assay": "Agar plate disc-diffusion antibacterial test", "assay_type": "cell-based", "settings": "nutrient agar, 37° C., 48 hours", "description": "as §1"}, "Pseudomonas aeruginosa": {"system": "Pseudomonas aeruginosa", "assay": "Agar plate disc-diffusion antibacterial test", "assay_type": "cell-based", "settings": "nutrient agar, 37° C., 48 hours", "description": "as §1"}, "Escherichia coli": {"system": "Escherichia coli", "assay": "Agar plate disc-diffusion antibacterial test", "assay_type": "cell-based", "settings": "nutrient agar, 37° C., 48 hours", "description": "as §1"}, "Bacillus cereus": {"system": "Bacillus cereus", "assay": "Agar plate disc-diffusion antibacterial test", "assay_type": "cell-based", "settings": "nutrient agar, 37° C., 48 hours", "description": "as §1"}, "[2]": {"settings": "A = concentration of comp. = 10,000 μL"}, "[3]": {"settings": "B = concentration of comp. = 30,000 μL"}, "[4]": {"settings": "C = concentration of comp. = 50,000 μL"}}}
{"compound": "N/C(Cc1nc2ccccc2o1)=N\\OC(=O)c1ccccn1", "note": "[Compound 3, 2-(benzo[d]oxazol-2-yl)-N′-(picolinoyloxy)acetimidamide]", "values": [{"measurement": "melting point", "value": "156 to 158", "unit": "°C"}, {"measurement": "inhibition zone, Chrysosporium keratinophilum, A", "setting": "[1]; [2]", "value": 23, "unit": "mm"}, {"measurement": "inhibition zone, Chrysosporium keratinophilum, B", "setting": "[1]; [3]", "value": 29, "unit": "mm"}, {"measurement": "inhibition zone, Chrysosporium keratinophilum, C", "setting": "[1]; [4]", "value": 48, "unit": "mm"}, {"measurement": "inhibition zone, Aspergillus flavus, A", "setting": "Aspergillus flavus; [2]", "value": 24, "unit": "mm"}, {"measurement": "inhibition zone, Aspergillus flavus, B", "setting": "Aspergillus flavus; [3]", "value": 27, "unit": "mm"}, {"measurement": "inhibition zone, Aspergillus flavus, C", "setting": "Aspergillus flavus; [4]", "value": 38, "unit": "mm"}, {"measurement": "inhibition zone, Staphylococcus aureus, A", "setting": "Staphylococcus aureus; [2]", "value": 15, "unit": "mm"}, {"measurement": "inhibition zone, Staphylococcus aureus, B", "setting": "Staphylococcus aureus; [3]", "value": 20, "unit": "mm"}, {"measurement": "inhibition zone, Staphylococcus aureus, C", "setting": "Staphylococcus aureus; [4]", "value": 28, "unit": "mm"}, {"measurement": "inhibition zone, Pseudomonas aeruginosa, A", "setting": "Pseudomonas aeruginosa; [2]", "value": 25, "unit": "mm"}, {"measurement": "inhibition zone, Pseudomonas aeruginosa, B", "setting": "Pseudomonas aeruginosa; [3]", "value": 31, "unit": "mm"}, {"measurement": "inhibition zone, Pseudomonas aeruginosa, C", "setting": "Pseudomonas aeruginosa; [4]", "value": 45, "unit": "mm"}, {"measurement": "inhibition zone, Escherichia coli, A", "setting": "Escherichia coli; [2]", "value": 29, "unit": "mm"}, {"measurement": "inhibition zone, Escherichia coli, B", "setting": "Escherichia coli; [3]", "value": 37, "unit": "mm"}, {"measurement": "inhibition zone, Escherichia coli, C", "setting": "Escherichia coli; [4]", "value": 53, "unit": "mm"}, {"measurement": "inhibition zone, Bacillus Cereus, A", "setting": "Bacillus cereus; [2]", "value": 25, "unit": "mm"}, {"measurement": "inhibition zone, Bacillus Cereus, B", "setting": "Bacillus cereus; [3]", "value": 27, "unit": "mm"}, {"measurement": "inhibition zone, Bacillus Cereus, C", "setting": "Bacillus cereus; [4]", "value": 39, "unit": "mm"}]}
